Test results published in patent US12029748B2, “Synergistic composition for maintenance of healthy balance of microflora” (KIMBERLY-CLARK WORLDWIDE, INC., priority 2017, dated 2024).

Key:
[1] = tested on: L. crispatus and E. coli; assay: Therapeutic Effect Protocol: L. crispatus / E. coli co-culture, ratio after 36 hours; assay type: cell-based, Lactobacillus crispatus; E. coli; conditions: for Therapeutic Efficacy Results (Lactobacillus/E. coli) 0.10%: nitrogen compound 0.10 wt/vol % with 1.0 wt/vol % α methyl-D glucoside (10:1); for Therapeutic Efficacy Results (Lactobacillus/E. coli) 0.10% / Therapeutic Efficacy Results (Lactobacillus/E. coli) 0.50% / Therapeutic Efficacy Results (Lactobacillus/E. coli) 1.00%: 36 hours anaerobic co-culture, 37° C.; for Therapeutic Efficacy Results (Lactobacillus/E. coli) 0.50%: nitrogen compound 0.50 wt/vol % with 1.0 wt/vol % α methyl-D glucoside (2:1); for Therapeutic Efficacy Results (Lactobacillus/E. coli) 1.00%: nitrogen compound 1.00 wt/vol % with 1.0 wt/vol % α methyl-D glucoside (1:1); for Therapeutic effect when ratio α methyl-D glucoside : nitrogen compound is at least about 2:1, but not at 1:1: ratio at least about 2:1, not 1:1; for Therapeutic effect at ratio 2:1 and 10:1, but not at 1:1: ratios 2:1 and 10:1, not 1:1; for Therapeutic effect when ratio α methyl-D glucoside : nitrogen compound is less than 2:1 (1:1): ratio 1:1
Method: As used herein the term “therapeutic effect” refers to the ability of the compositions and formulations of the present invention to stimulate the growth of Lactobacillus relative E. coli measured according to the Therapeutic Effect Protocol described below. Generally, therapeutic effect is expressed as a ratio of Lactobacillus to E. coli and is desirably greater than about 2, more preferably greater than about 20 and more desirably greater than about 100.
The data in Table 1 was tested according to the Therapeutic Effect Protocol as described further herein. The nitrogen compounds were tested for their therapeutic efficacy at three different concentrations when combined with α methyl-D glucoside (1% wt/vol %). The concentrations of the nitrogen containing compounds that were tested were 1% wt/vol %, 0.5% wt/vol %, and 0.1% wt/vol %.
Colonies of L. crispatus and E. coli were prepared as follows. A colony of L. crispatus was transferred to 7 ml de Man, Rogosa & Sharpe (MRS) broth and incubated anaerobically (using BD GasPak EZ anaerobe container system with indicator) at 37° C. without shaking for 18-20 hours. A colony of E. coli was transferred to 5 ml Tryptic Soy Broth (TSB) and incubated aerobically (shaking at 100 rpm) at 37° C. for 18-20 hours.
Colonies were then inoculated as follows. Bacterial cultures were gently vortexed and 1 mL of each culture was transferred to a corresponding 2.0 mL micro-centrifuge tube and then centrifuged for two minutes at 14,500 rpm. The cultural supernatant was removed and the cell pellet was re-suspended in 1 mL of 0.95% (wt/vol %) saline. […] For L. crispatus, the pellet was re-suspended in 1 mL of 0.95% saline to achieve ˜10^7-10^8 cfu/mL. For E. coli, the pellet was re-suspended in 1 mL of 0.95% saline to achieve ˜10^8-10^9 cfu/mL.
Media were prepared as follows.
(§1) All of the ingredients in Table 2 were combined and the pH was adjusted to 6.5. […] To evaluate the effect of various nitrogen containing therapeutic agents on the growth of bacteria, the LAPT-g media, prepared as described above, was supplemented with various nitrogen containing compound therapeutic agents to a final test concentration between 0.1 and 1.0%. As initial screening measures, solubility and initial pH of each composition were checked. If a specific composition was insoluble (as detected by visual indication of precipitates or turbidity), then no further therapeutic efficacy testing was undertaken on that composition. Additionally, if the initial pH of the composition was below 5.5 (“Low”) or was above 6.5 (“High”), then no further therapeutic efficacy testing was undertaken on that composition.
Five milliliters (5 mL) of each medium was transferred to a test tube in duplicates for subsequent inoculation. A master mixture of L. crispatus and E. coli, prepared as described above, was prepared in 1,000:1 ratio. Each (5 ml) test tube was inoculated with the master mixture to give 10^5-10^6 total CFU L. crispatus and 100-1,000 total CFU E. coli per tube.
To establish a negative control, one tube was vortexed and 100 μL was removed to determine the initial cell concentrations by serial dilutions and plating (2 plates per dilution). L. crispatus is selected on MRS agar plates incubated anaerobically at 37° C. for two days. E. coli is selected on TSA plates incubated aerobically at 37° C. for one day. The co-cultures were incubated in an anaerobic container with BD GasPaks at 37° C. for 36 hours.
The effect of the α methyl-D glucoside and the nitrogen containing compound therapeutic agents on the ratio of L. crispatus to E. coli was measured 36 hours after inoculation and a final pH of the test solutions was recorded. The co-culture tube was vortexed and 100 μL was removed to determine the final cell concentrations by serial dilutions and plating (2 plates per dilution). L. crispatus is selected on MRS agar plates incubated anaerobically at 37° C. for two days.

[2] = Initial pH screening of the composition; assay type: physicochemical; conditions: for I pH (initial pH), 0.10%: nitrogen compound 0.10 wt/vol % with 1.0 wt/vol % α methyl-D glucoside in medium; for I pH (initial pH), 0.50%: nitrogen compound 0.50 wt/vol % with 1.0 wt/vol % α methyl-D glucoside in medium; for I pH (initial pH), 1.00%: nitrogen compound 1.00 wt/vol % with 1.0 wt/vol % α methyl-D glucoside in medium
Excerpt: Each composition in Table 1 went through initial screening measures of solubility and initial pH (“I pH”). […] When a specific concentration of a nitrogen containing compound was insoluble, the initial and final pH (“F pH”) of the combined composition was not measured and accordingly are each marked as “NM.” Additionally, initial pH of the composition was checked as a screening measure. The initial pH was marked as either Low (“L”), High (“H”), or Pass (“P”). A Low initial pH corresponds to an initial pH being less than 5.5, a High initial pH corresponds to an initial pH being greater than 6.5, and a Pass initial pH corresponds to the pH being at or between 5.5-6.5. […] As part of the Therapeutic Effect Protocol, a final pH was also measured after the compositions that were tested against the Lactobacillus and E. coli.
as §1

Row | SMILES | Therapeutic Efficacy Results (Lactobacillus/E. coli) 0.10% [1] | Therapeutic Efficacy Results (Lactobacillus/E. coli) 0.50% [1] | Therapeutic Efficacy Results (Lactobacillus/E. coli) 1.00% [1] | Therapeutic effect when ratio α methyl-D glucoside : nitrogen compound is at least about 2:1, but not at 1:1 ([1]; with α methyl-D glucoside) | I pH (initial pH), 0.10% [2] | I pH (initial pH), 0.50% [2] | I pH (initial pH), 1.00% [2] | Therapeutic effect at ratio 2:1 and 10:1, but not at 1:1 ([1]; with α methyl-D glucoside) | Therapeutic effect when ratio α methyl-D glucoside : nitrogen compound is less than 2:1 (1:1) ([1]; with α methyl-D glucoside) | Therapeutic effect (ratio of Lactobacillus to E. coli greater than 2) at each concentration tested ([1]; with α methyl-D glucoside, nitrogen compound 1 wt/vol %, 0.5 wt/vol % and 0.1 wt/vol %)
1 | N[C@@H](CCO)C(=O)O [L-Homoserine] | >750 | 0.66 | 0.33 | provided a therapeutic effect | P (a Pass initial pH corresponds to the pH being at or between 5.5-6.5) | P (a Pass initial pH corresponds to the pH being at or between 5.5-6.5) | P (a Pass initial pH corresponds to the pH being at or between 5.5-6.5) | – | – | –
2 | O=C1NC(=O)C(=O)C(=O)N1 [Alloxan] | 4.83 | 1.45E+04 | – | provided a therapeutic effect | P (a Pass initial pH corresponds to the pH being at or between 5.5-6.5) | P (a Pass initial pH corresponds to the pH being at or between 5.5-6.5) | L (A Low initial pH corresponds to an initial pH being less than 5.5) | provided a therapeutic effect | – | –
3 | CCC(N)C(=O)O (racemic) [DL-a-amino-n-butyric acid] | 0.34 | 100 | 4.44 | provided a therapeutic effect | P (a Pass initial pH corresponds to the pH being at or between 5.5-6.5) | P (a Pass initial pH corresponds to the pH being at or between 5.5-6.5) | P (a Pass initial pH corresponds to the pH being at or between 5.5-6.5) | – | provided a therapeutic effect | –
4 | C[C@H](N)C(=O)O [L-Alanine] | 1.5 | 1.52 | 1.3 | – | P (a Pass initial pH corresponds to the pH being at or between 5.5-6.5) | P (a Pass initial pH corresponds to the pH being at or between 5.5-6.5) | P (a Pass initial pH corresponds to the pH being at or between 5.5-6.5) | – | – | –
5 | NC(=O)[C@H]1O[C@@H](O)[C@H](O)[C@@H](O)[C@@H]1O [D-glucoronamide] | >122 | 6.84E+03 | 1.6 | provided a therapeutic effect | P (a Pass initial pH corresponds to the pH being at or between 5.5-6.5) | P (a Pass initial pH corresponds to the pH being at or between 5.5-6.5) | P (a Pass initial pH corresponds to the pH being at or between 5.5-6.5) | provided a therapeutic effect | – | –
6 | C[C@@H](N)C(=O)O [D-Alanine] | 1.10E+06 | >1.30E+04 | 60 | – | P (a Pass initial pH corresponds to the pH being at or between 5.5-6.5) | P (a Pass initial pH corresponds to the pH being at or between 5.5-6.5) | P (a Pass initial pH corresponds to the pH being at or between 5.5-6.5) | – | provided a therapeutic effect | provided a therapeutic effect
7 | CC(=O)N[C@H]1C(O)O[C@H](CO)[C@H](O)[C@@H]1O (stereo partly drawn) [N-Acetyl-D-Galactosamine] | 130 | >100 | 0.65 | provided a therapeutic effect | P (a Pass initial pH corresponds to the pH being at or between 5.5-6.5) | P (a Pass initial pH corresponds to the pH being at or between 5.5-6.5) | P (a Pass initial pH corresponds to the pH being at or between 5.5-6.5) | provided a therapeutic effect | – | –
8 | NC(=O)CC[C@H](N)C(=O)O [L-Glutamine] | >161 | 1.28 | 0.53 | provided a therapeutic effect | P (a Pass initial pH corresponds to the pH being at or between 5.5-6.5) | P (a Pass initial pH corresponds to the pH being at or between 5.5-6.5) | P (a Pass initial pH corresponds to the pH being at or between 5.5-6.5) | – | – | –
9 | NCCCC[C@H](N)C(=O)O [L-Lysine] | >141 | 1.93 | 0.42 | provided a therapeutic effect | P (a Pass initial pH corresponds to the pH being at or between 5.5-6.5) | P (a Pass initial pH corresponds to the pH being at or between 5.5-6.5) | P (a Pass initial pH corresponds to the pH being at or between 5.5-6.5) | – | – | –
